Reference: US20220296583A1, “COMPOSITIONS AND METHODS FOR TREATMENT OF OVARIAN AND BREAST CANCER” (Board of Regents, The University of Texas System, priority 2021, published 2022)
“Also recorded” adds a separate entry of the source.

What was measured:
[1] = test system: SKOv3 xenograft; assay: SKOv3 subcutaneous xenograft, Compound B, carboplatin and paclitaxel; type: in vivo, mice; settings: SKOv3 s.c., 6 weeks
Protocol: After treatment as indicated in (A) for three weeks, mice were weighed, and intraperitoneal nodules were excised and weighed. […] Mice were treated with single, double, or triple agents for 6 weeks. Tumor was measured once a week until the tumor burden in control group reached maximum allowance. The graphs indicate the mean±standard deviation. Statistical significance is indicated by *p<0.05, **p<0.01, and ***p<0.0001.
Six-week-old female athymic nu/nu mice were purchased from Envigo. Experiments were reviewed and all procedures were performed according to an animal protocol approved by the Institutional Animal Care and Use Committee of UT MD Anderson Cancer Center. […] Carboplatin was administrated i.p. once a week at a dose of 25 mg/kg. […] Carboplatin was treated at a dose of 30 mg/kg once a week for six weeks. […] At end of six weeks, the mice were sacrificed by CO2. The mice were dissected immediately after death and the tumors were collected and weighed.
OVCAR8 cells were injected intraperitoneally (ip) into nu/nu mice. Treatment started 7 days post injection. […] At the conclusion of the treatment, the mice were sacrificed, and the tumor was dissected and weighed (FIG. 23A). […] The tumor volume was measured at indicated time points (FIG. 23D).

[2] = Pre-clinical toxicology studies; type: in vivo
[3] = test system: MDA-MB-231 xenograft; assay: MDA-MB-231 mammary fat pad xenograft, Compound B and olaparib; type: in vivo, mice; settings: 50 mg/kg, oral, 5 weeks
Protocol: Forty female nu/nu mice were injected with 0.8×10^6 MDA-MB-231 cells into their fourth mammary fat pads. […] Tumors were measured every week as noted above (SKOv3 xenograft models).

[4] = test system: OVCAR8, SKOv3, and OC316 ovarian cancer cell lines; assay: Annexin V/PI apoptosis, Compound B and carboplatin; type: cell-based; settings: 72 h; flow cytometry
Protocol: Cells were dislodged and stained with Annexin V antibody and PI dye for flow cytometry. Representative images are shown on the left and the analysis of apoptotic population under different treatment conditions are on the right. (B) Effect of SIK2 knockout on carboplatin-induced apoptosis. SIK2 knockout (KO) and control cell lines were treated as in (A) and analyzed for apoptosis. The bars indicate the mean percentage of apoptotic cells with standard deviations.
After completion of incubation, cells were harvested and washed with PBS two times. After washing, cells were re-suspended in 100 μL Annexin-binding buffer containing propidium iodide (PI) and FITC Annexin-V (Invitrogen) and incubated at ambient temperature for 15 min in the dark. After incubation, 200 μL of Annexin-binding buffer was added and stained cells were analyzed using a Beckman Coulter's Gallios Flow Cytometer.
Many current cancer chemotherapies, including platinum-based drugs, exert their antitumor effect by triggering apoptosis in cancer cells. […] The inhibitor of apoptosis protein family (IAPs) includes an important group of proteins involved in the regulation of apoptosis. One member of this protein family, survivin, plays an important role in promoting tumor progression by deregulating apoptosis and cell division.

With `COc1c(F)cc(F)cc1-c1c[nH]c2ncc(-c3cnn(C4CCN(S(C)(=O)=O)CC4)c3)cc12` [Compound B, 3-(3,5-difluoro-2-methoxyphenyl)-5-(1-(1-(methylsulfonyl)piperidin-4-yl)-1H-pyrazol-4-yl)-1H-pyrrolo[2,3-b]pyridine] the “tumor growth (tumor volume)” value ([1]; Compound B 40 mg/kg) was “significantly inhibited tumor growth”, the “effect when added to carboplatin plus paclitaxel” value ([1]; p<0.01) was “further enhanced the combination treatment of carboplatin plus paclitaxel” and the “hematologic / hematopoietic toxicity” value [2] was “minimal hematologic toxicity; also recorded: little effect on normal hematopoietic or organ function; also recorded: little or no hematopoietic toxicity”. For the same molecule, the “tumor burden / tumor volume” value [3] was “remained unchanged” and the apoptosis [4] was “induced apoptosis as a single agent, but also enhanced carboplatin-induced apoptosis”.
